Columns and labels:
Type in all cases: in vivo
[1] = system: A2780 human ovarian cell line; assay: Tumor growth inhibition, A2780 xenograft; details: for % TGI: A2780 in mice
Procedure: To evaluate in vivo efficacy and effect of 4,4,4-Trifluoro-N-[(1S)-2-[[(7S)-5-(2-hydroxyethyl)-6-oxo-7H-pyrido[2,3-d][3]benzazepin-7-yl]amino]-1-methyl-2-oxo-ethyl]butanamide on inhibition of Notch processing pharmacodynamics (PD), several cell lines- and patient-derived xenograft models are used. A2780 is a human ovarian cell line (Sigma-Aldrich, No. 93112519); SW480 is a human colorectal cell line (ATCC No. CCL-228); HCT 116 is a human colorectal cell line (ATCC No. CCL-247); U-87 MG is a human glioblastoma cell line (ATCC No. HTB-14); A375 is a human malignant melanoma cell line (ATCC No. CRL-1619); K-562 is a human chronic myelogenous leukemia (CML) cell line characterized by the presence of a fusion transcript comprised of the Bcr and Abl1 genes (ATCC No. CCL-243); Jurkat; HEL 92.1.7 is a human erythroleukemia cell line (ATCC No. TIB-180). Each of the cell lines are obtained from the American Type Culture Collection (ATCC) at the ATCC number stated, except the A2780 cell line which is obtained from Sigma-Aldrich at the stated catalog number. The cells are grown in their respective, recommended culture media at 37° C. in 5% CO2 with humidity in the atmosphere. A2780 (2×10^6), SW480 (6×10^6), HCT 116 (6×10^6), U-87 MG (6×10^6), and A-375 (10×10^6) cells in a 1:1 matrigel mix (0.2 mL volume) are implanted by subcutaneous injection in the hind leg of 6-8 weeks of age athymic nude female mice (Harlan Laboratories). K-562 (6×10^6) cells in a 1:1 matrigel mix (0.2 mL volume) are implanted by subcutaneous injection in the hind leg of 6-8 weeks of age CD1 nμ/nμ female mice (Charles River Laboratories). HEL 92.1.7 (7×10^6) in a 1:1 matrigel mix (0.2 mL volume) are implanted by subcutaneous injection in the hind leg of 6-8 weeks of age CB17 severely combined immune deficient female mice (Taconic Farms). Patient-derived tumors are minced into 1-2 mm pieces and mixed with matrigel (1:1) in 0.2 ml volume and implanted by subcutaneous injection in the hind leg of 6-8 weeks of age athymic nude female mice (Harlan Laboratories). Patients-derived tumor models include: human colon carcinoma (EL2144), human triple negative invasive ductal breast carcinoma (EL1997), human colon carcinoma (EL1989, EL 1986), and human glioblastoma (EL 2056) with samples obtained after patient consent and hospital approval from IU Health, Methodist Hospital, Indianapolis, Ind., USA 46206. A total of 7 to 10 mice are used for each group. Just before implantation for A2780, SW480, HEL 92.1.7, A-375, K-562, and patient-derived tumor models, animals are irradiated (450 Total Body Irradiation). Mice are fed ad libitum on normal chow. Treatment is initiated with oral administration (gavage) of compound or vehicle (1% Na-CMC in 0.25% Tween®-80) in 0.2 mL volume when tumor size reached to 150±50 mm^3. At designated time points following treatment, animals are sacrificed by CO2 asphyxiation and cervical dislocation. Tumors are removed and used for PD response analysis. Tumor growth and body weight are monitored over time to evaluate efficacy and signs of toxicity. Bidimensional measurements of tumors are performed twice a week and tumor volumes are calculated based on the following formula: (Tumor Volume)=[(L)×(W2)×(Π/6)] where L is mid-axis length and W is mid-axis width. Tumor volume data are transformed to a log scale to equalize variance across time and treatment groups. The log volume data are analyzed with a two-way repeated measures analysis of variance by time and treatment using the MIXED™ procedures in SAS™ software (version 8.2). The correlation model for the repeated measures is spatial power. Treated groups are compared to the control group at each time point. The MIXED™ procedure is also used separately for each treatment group to calculate adjusted means and standard errors at each time point. Both analyses account for the autocorrelation within each animal and the loss of data that occurs when animals with large tumors are removed from the study early. […]

[2] = system: HCT 116 human colorectal cell line; assay: Tumor growth inhibition, HCT 116 xenograft; details: HCT 116 in mice, oral 8 mg/kg, (Mon, Wed, Fri)x4; p <0.05 to <0.01
Procedure: (§1) To evaluate in vivo efficacy and effect of 4,4,4-Trifluoro-N-[(1S)-2-[[(7S)-5-(2-hydroxyethyl)-6-oxo-7H-pyrido[2,3-d][3]benzazepin-7-yl]amino]-1-methyl-2-oxo-ethyl]butanamide on inhibition of Notch processing pharmacodynamics (PD), several cell lines- and patient-derived xenograft models are used. A2780 is a human ovarian cell line (Sigma-Aldrich, No. 93112519); SW480 is a human colorectal cell line (ATCC No. CCL-228); HCT 116 is a human colorectal cell line (ATCC No. CCL-247); U-87 MG is a human glioblastoma cell line (ATCC No. HTB-14); A375 is a human malignant melanoma cell line (ATCC No. CRL-1619); K-562 is a human chronic myelogenous leukemia (CML) cell line characterized by the presence of a fusion transcript comprised of the Bcr and Abl1 genes (ATCC No. CCL-243); Jurkat; HEL 92.1.7 is a human erythroleukemia cell line (ATCC No. TIB-180). […] Tumor growth and body weight are monitored over time to evaluate efficacy and signs of toxicity. Bidimensional measurements of tumors are performed twice a week and tumor volumes are calculated based on the following formula: (Tumor Volume)=[(L)×(W2)×(Π/6)] where L is mid-axis length and W is mid-axis width. […] The log volume data are analyzed with a two-way repeated measures analysis of variance by time and treatment using the MIXED™ procedures in SAS™ software (version 8.2). […]

[3] = system: U-87 MG human glioblastoma cell line; assay: Tumor growth inhibition, U-87 MG xenograft; details: U-87 MG in mice, oral 8 mg/kg, (Mon, Wed, Fri)x4; p <0.0001
Procedure: as §1

[4] = system: A375 human malignant melanoma cell line; assay: Tumor growth inhibition, A-375 xenograft; details: A-375 in mice, oral 8 mg/kg, (Mon, Wed, Fri)x4; p NS
Procedure: as §1

[5] = system: HEL 92.1.7 human erythroleukemia cell line; assay: Tumor growth inhibition, HEL 92.1.7 xenograft; details: HEL 92.1.7 in mice, oral 8 mg/kg, Q2dx14; p NS
Procedure: as §1

[6] = system: human glioblastoma (EL 2056); assay: Tumor growth inhibition, patient-derived tumor model EL2056; details: EL2056 in mice, oral 8 mg/kg, (Mon, Wed, Fri)x5; p <0.0001
Procedure: as §1

In the case of C[C@H](NC(=O)CCC(F)(F)F)C(=O)N[C@@H]1C(=O)N(CCO)c2ncccc2-c2ccccc21 [Compound 1, 4,4,4-trifluoro-N-[(1S)-2-[[(7S)-5-(2-hydroxyethyl)-6-oxo-7H-pyrido[2,3-d][3]benzazepin-7-yl]amino]-1-methyl-2-oxo-ethyl]butanamide], the “% TGI” value ([1]; oral 1.5 mg/kg, QDx26, p <0.05 to <0.01) is reported as 33.36 (<0.05 to %, the “% TGI” value ([1]; oral 3 mg/kg, (BID)QDx7 + (BID)Q2Dx7, p <0.0001) is reported as 72.35 (<0.0001) % and the “% TGI” value ([1]; oral 3 mg/kg, Q2Dx13, p <0.05 to <0.01) is reported as 36.65 (<0.05 to %. The “% TGI” value ([1]; oral 3 mg/kg, QDx21, p <0.0001) was 46.60 (<0.0001) %, the “% TGI” value ([1]; oral 6 mg/kg, Q2Dx13, p <0.05 to <0.01) was 36.33 (<0.05 to % and the “% TGI” value ([1]; oral 7 mg/kg, Q2Dx13, p <0.0001) was 56.95 (<0.0001) %. The “% TGI” value ([1]; oral 8 mg/kg, Q2Dx13, p <0.0001) was 68.60 (<0.0001) %, the “% TGI” value ([1]; oral 10 mg/kg, Q2Dx11, p <0.0001) was 56.55 (<0.0001) % and the “% TGI” value ([1]; oral 10 mg/kg, Q2Dx13, p <0.0001) was 51.11 (<0.0001) %. The “% TGI” value ([1]; oral 10 mg/kg, Q3Dx8, p <0.0001) was 32.99 (<0.0001) %, the “Effect of alternative dosing regimens on tumor growth inhibition” value ([1]; xenograft models of Table 5) was “more frequent dosing affords greater efficacy” and the “% TGI” value [2] was 37.58 (<0.05 to %. The “% TGI” value [3] was 53.33 (<0.0001) %, the “% TGI” value [4] was 28.47 (NS) % and the “% TGI” value [5] was 7.20 (NS) %. For the same compound, the “% TGI” value [6] was 59.05 (<0.0001) %.

— patent publication US20190209581A1, “DOSAGE REGIMEN FOR TREATMENT OF SOLID TUMORS” (Eli Lilly and Company, priority 2016, published 2019)
